Literature values in PMC9184245 (Journal of Pesticide Science, 2022).

Experiments:
[1] = measured value from experimental database; ref EPI Suite ver. 4.11
[2] = test system: fish; conditions: biomagnification factor, corrected by lipid content and growth rate
[3] = measured value; ref REACH registered substances database

Water solubility [3]	Compound	log Kow [1]	Bioaccumulation potential, BMF [2]
	c1ccc2c(c1)ccc1ccccc12 [Compound 1, Phenanthrene]	4.46^a^)	
	c1ccc(-c2ccccc2-c2ccccc2)cc1 [Compound 2, o-Terphenyl]	5.52^a^)	
	O=[N+]([O-])c1ccc(Oc2ccc(Cl)cc2Cl)cc1 [Compound 3, Nitrofen]	4.64^a^)	BMF^d^)=0.179[4])
	COc1ccc(C(c2ccc(OC)cc2)C(Cl)(Cl)Cl)cc1 [Compound 4, Methoxychlor]	5.08^a^)	
<0.1^c^) mg/L	CC(C)(C)c1cc(CCC(=O)OCC(COC(=O)CCc2cc(C(C)(C)C)c(O)c(C(C)(C)C)c2)(COC(=O)CCc2cc(C(C)(C)C)c(O)c(C(C)(C)C)c2)COC(=O)CCc2cc(C(C)(C)C)c(O)c(C(C)(C)C)c2)cc(C(C)(C)C)c1O [Compound 9, Pentaerythritol tetrakis[3-(3,5-di-tert-butyl-4-hydroxyphenyl)propionate]]		
